Laboratory results reported in PubChem BioAssay AID844 (SRMLSC, 2007).
Activity calls are given as the source filed them. No rule for the calls is given here.

Key:
[1] = system: MRP1 cells, doxorubicin viability shift, 10 uM compound; test: viability protection against doxorubicin, MRP-1 line – cell-based, doxorubicin EC50 shift, dose response (AID 844); details: for EC50: measured here: doxorubicin EC50 with compound;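 as to viability: tested at 10 µM; plate controls were cells with vehicle for no effect and cells with cytotoxic drug for full effect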
[2] = as above; details: MRP1 cells, doxorubicin viability shift, 10 uM compound; at 100 µM (top of the series)

Structure (SMILES): NS(=O)(=O)c1ccc(N=Nc2c(-c3ccccc3)[nH]n(-c3nc(-c4ccccc4)cs3)c2=O)cc1
- EC50 [1]: < 0.195 µM
- viability [2]: 8.13% (inactive)

Structure (SMILES): CCOC(=O)c1c(CSC(=N)N)n(-c2ccc(C)cc2)c2cc(Br)c(OC(C)=O)cc12
- EC50 [1]: < 0.195 µM
- viability [2]: 0.37% (inactive)

Structure (SMILES): NC1C2CN(c3nc4c(cc3F)c(=O)c(C(=O)O)cn4-c3ccc(F)cc3F)CC12 (centres undefined)
- EC50 [1]: < 0.195 µM
- viability [2]: 17.6% (inactive)

Structure (SMILES): Cc1cc(N/N=C/c2ccc(O)cc2O)nc(-n2nc(C)cc2C)n1
- EC50 [1]: < 0.195 µM
- viability [2]: 15.5% (inactive)

Structure (SMILES): COc1cccc(/C=N/NC(=O)c2cc(-c3cccn3C)n[nH]2)c1O
- EC50 [1]: < 0.195 µM
- viability [2]: 9.49% (inactive)

Structure (SMILES): COc1cc(C2Nc3cccc4cccc(c34)N2)cc(OC)c1O
- EC50 [1]: < 0.195 µM
- viability [2]: 1.31% (inactive)

Structure (SMILES): N=C(N)SCc1ccc(Cl)cc1Cl
- EC50 [1]: < 0.195 µM
- viability [2]: 10.9% (inactive)

Structure (SMILES): COc1ccc(/C=N/Nc2nc(-c3ccc(Cl)cc3)cc(C(F)(F)F)n2)cc1OC
- fold increase in Dox EC50 [1]: 0.35 (inactive)
- EC50 [1]: 1.9 µM

Structure (SMILES): Cc1cc(C)nc(N/N=C/c2cccc3ccccc23)n1
- fold increase in Dox EC50 [1]: 1 (inactive)
- EC50 [1]: 5.39 µM

Structure (SMILES): Cc1ccc(NC(=O)Cc2csc(-c3ccccc3)n2)cc1F
- fold increase in Dox EC50 [1]: 1.22 (inactive)
- EC50 [1]: 6.6 µM

Structure (SMILES): CCCCNc1oc(-c2ccc(OC)cc2)nc1S(=O)(=O)c1ccccc1
- fold increase in Dox EC50 [1]: 0.72 (inactive)
- EC50 [1]: 3.87 µM

Structure (SMILES): CCOc1ccccc1C(=O)OCC(=O)Nc1ccc(OC(F)F)cc1
- fold increase in Dox EC50 [1]: 0.93 (inactive)
- EC50 [1]: 5.04 µM

Structure (SMILES): Cc1c(C(=O)OC2CCC(C)CC2)[nH]c2c1C(=O)CCC2 (centres undefined)
- fold increase in Dox EC50 [1]: 0.93 (inactive)
- EC50 [1]: 5.01 µM

Structure (SMILES): CCN(CC)S(=O)(=O)c1cc(NC(=O)C(=O)c2c(-c3ccccc3)cc3ccccn23)ccc1C
- fold increase in Dox EC50 [1]: 1.28 (inactive)
- EC50 [1]: 6.91 µM

Structure (SMILES): COc1cccc(/C=N\NC(=O)C2=NNC(=O)C2C)c1O (centres undefined)
- fold increase in Dox EC50 [1]: 1.2 (inactive)
- EC50 [1]: 6.47 µM

Structure (SMILES): Oc1ccc(-c2nc(-c3ccc(O)c(O)c3)cs2)cc1
- EC50 [1]: < 0.195 µM
- viability [2]: 1.94% (inactive)

Structure (SMILES): Cc1ccc(OCc2nc(-c3ccc(Cl)cc3)n[nH]2)cc1
- fold increase in Dox EC50 [1]: 0.79 (inactive)
- EC50 [1]: 4.24 µM

Structure (SMILES): COc1ccc(CN=C2NC(=O)CC(C(=O)Nc3ccccc3C)S2)cc1 (centres undefined)
- fold increase in Dox EC50 [1]: 1.16 (inactive)
- EC50 [1]: 6.24 µM

Structure (SMILES): Cn1c(=O)[nH]c(=O)c2c1nc(SCC(=O)Nc1ccccc1)n2Cc1ccccc1
- fold increase in Dox EC50 [1]: 0.45 (inactive)
- EC50 [1]: 2.44 µM

Structure (SMILES): O=C1Cc2ccccc2C(=O)N1CCc1ccccc1
- fold increase in Dox EC50 [1]: 0.44 (inactive)
- EC50 [1]: 2.37 µM

Structure (SMILES): O=C(Nc1cccc([N+](=O)[O-])c1)c1[nH]ncc1Cl
- fold increase in Dox EC50 [1]: 0.54 (inactive)
- EC50 [1]: 2.89 µM

Structure (SMILES): CC1CCc2nn(CC(=O)N3CCN(C(=O)c4ccco4)CC3)cc2C1 (centres undefined)
- fold increase in Dox EC50 [1]: 0.66 (inactive)
- EC50 [1]: 3.57 µM

Structure (SMILES): CCCn1c(C)cc(/C=C(\C#N)C(=O)OCC(=O)Nc2ccc(OC)c(Cl)c2)c1C
- fold increase in Dox EC50 [1]: 0.7 (inactive)
- EC50 [1]: 3.81 µM

Structure (SMILES): O=C(Nc1ccn(Cc2ccccc2F)n1)c1ccc(COc2cc(Cl)ccc2Cl)o1
- fold increase in Dox EC50 [1]: 0.91 (inactive)
- EC50 [1]: 4.94 µM

Structure (SMILES): CC1=NN(c2ccc(C)cc2C)C(=O)C1C(c1ccccc1O)C1C(=O)N(c2ccc(C)cc2C)N=C1C (centres undefined)
- fold increase in Dox EC50 [1]: 0.71 (inactive)
- EC50 [1]: 3.81 µM

Structure (SMILES): O=C(Nc1nnc(C(F)(F)F)s1)C1COc2ccccc2O1 (centres undefined)
- fold increase in Dox EC50 [1]: 0.85 (inactive)
- EC50 [1]: 4.56 µM

Structure (SMILES): CCNc1ccc(C(=O)OCC(=O)c2cc(C)n(Cc3ccc4c(c3)OCO4)c2C)cc1[N+](=O)[O-]
- fold increase in Dox EC50 [1]: 1.06 (inactive)
- EC50 [1]: 5.74 µM

Structure (SMILES): CC(C)Cn1c2c(c(O)c(C(=O)Nc3nccs3)c1=O)CCCC2
- fold increase in Dox EC50 [1]: 0.83 (inactive)
- EC50 [1]: 4.48 µM

Structure (SMILES): Cc1ccc(C(=O)NNC(=O)c2ccc(SCC3CCCO3)c([N+](=O)[O-])c2)cc1 (centres undefined)
- fold increase in Dox EC50 [1]: 0.56 (inactive)
- EC50 [1]: 3.01 µM

Structure (SMILES): CC(/C=N/NC(=O)c1nn(C)c(C)c1Br)=C\c1ccccc1
- fold increase in Dox EC50 [1]: 1.25 (inactive)
- EC50 [1]: 6.72 µM

Structure (SMILES): Cc1ccc(S(=O)(=O)N/N=C\c2cn(-c3ccccc3)nc2-c2ccccc2)cc1
- fold increase in Dox EC50 [1]: 1.38 (inactive)
- EC50 [1]: 7.44 µM

Structure (SMILES): CS(=O)(=O)Nc1nnc(Cc2ccccc2)s1
- fold increase in Dox EC50 [1]: 0.75 (inactive)
- EC50 [1]: 4.04 µM
